Test system: MALME-3M multicell spheroids, viability
Test: Anticancer human tumor MALME-3M cell line growth inhibition [TAK];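 note: spheroids exposed to drugs for seven days before readout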;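 for viability, T/C: 100% = DMSO vehicle control viability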
Conditions: for IC50: curve of first compound; for viability, T/C: stronger effect = lower value
Description: Combinatorial screen of targeted agents with TAK-243 and ipatasertib in multi-cell type tumor spheroids
A high-throughput screen of multi-cell type tumor spheroids was designed to identify active combinations of targeted small molecules and TAK-243 or ipatasertib. Complex spheroids include a stromal component modeled by human endothelial cells (HUVEC) and fibroblasts modeled by human mesenchymal stem cells (MSCs). The concentration ranges selected for each drug and investigational agent were based upon clinically achievable concentrations if the clinical Cmax of the agent was known.
Compounds. The drugs and investigational agents: TAK-243 (785004), ipatasertib (767898), everolimus (733504), selumetinib (741078), bortezomib (756655), trametinib (758246), ixazomib (758254), vemurafenib (761431), dabrafenib (764134), sapanisertib (764658), alpelisib (765974), and copanlisib (816437), were obtained from the National Cancer Institute (NCI) Developmental Therapeutics Program Chemical Repository. The FDA-approved anticancer drug set is available from the NCI Developmental Therapeutics Program. […] The stock solutions were prepared in dimethyl sulfoxide (DMSO, Sigma-Aldrich, St. Louis, MO, cat. D2650) at 800-fold the tested concentration and stored at -70 degrees C prior to their use. All drugs and investigational agents were tested over a range starting from a high concentration at or near the clinical Cmax and decreasing in half-log increments. If the clinical Cmax for an agent had not been determined, the highest concentration tested was 10 microM.
NCI60 Cell Culture. NCI60 cell lines were obtained from the NCI Developmental Therapeutics Program Tumor Repository. For each lot of cells, the Repository performed Applied Biosystems AmpFLSTR Identifiler testing with PCR amplification to confirm consistency with the published Identifier STR profile for each cell line. Cells were kept in continuous culture for no more than 20 passages. The optimal seeding densities for each of the cell lines at each time point assessed were determined prior to performing the concentration response studies. Briefly, the NCI60 human tumor lines were grown as monolayers in RPMI 1640 medium supplemented with 10% FBS and 2 mmol/L L-glutamine.
An additional 2 lines were from the NCI60 cell line panel including melanomas, MALME-3M and SK-MEL-2. Pooled donor human umbilical vein endothelial cells (HUVEC, Lonza, cat. CC-2519) and human mesenchymal stem cells (hMSC, Lonza, cat. PT-2501) were purchased from Lonza (Walkersville, MD).
PDMR cell lines were grown in complete medium (DC medium): Dulbecco's modified Eagle's medium (DMEM)/F12 supplemented with 5% fetal bovine serum (FBS), 2 mM L-glutamine, 100 U/mL penicillin and 100 µg/ml streptomycin, 0.4 µg/ml hydrocortisone, 10 ng/ml epidermal growth factor (EGF) recombinant human protein, 24 µg/mL adenine, and 0.1 mg/mL primocin. During culture from frozen stock vials, PDMR cells were cultured in the same medium containing 10 µM Y-27632 (see Table 3). The PDCs were cultured in complete DMEM/F12 media without 10 microM Y-27632 dihydrochloride for at least two passages prior to the screen. The pooled donor HUVEC and hMSC were cultured in endothelial cell growth medium 2 (PromoCell, Heidelberg, Germany, cat. C-22011) and mesenchymal stem cell growth medium 2 (PromoCell, cat. C-28009), respectively. For all experiments, HUVEC and hMSC were used at passages </=5.
For the pre-screen, cell seeding densities were determined from a titration spanning the range from 5,000 to 313 cells per well. The mct-spheroids including 60% malignant cells, 25% HUVEC and 15% MSC dispensed as a mixture into U-bottom Ultra-Low Attachment 384-well plates (Corning, NY)
High-throughput Drug Combination Screening.
Prior to their inoculation into 384-well plates, malignant cells, HUVEC, and hMSC were removed from T flasks using TrypLE express (Thermo Fisher Scientific, cat. 12605036) and harvested by centrifugation for 5 min at 233 x g. […]

[1] = second compound 0.3 µM, first compound 0.00316 µM
[2] = second compound 0.3 µM, first compound 0.01 µM
[3] = second compound 0.3 µM, first compound 0.0316 µM
[4] = second compound 0.3 µM, first compound 0.1 µM
[5] = second compound 0.949 µM, first compound 0.00316 µM
[6] = second compound 0.949 µM, first compound 0.01 µM
[7] = second compound 0.949 µM, first compound 0.0316 µM
[8] = second compound 0.949 µM, first compound 0.1 µM
[9] = second compound 3 µM, first compound 0.00316 µM
[10] = second compound 3 µM, first compound 0.01 µM
[11] = second compound 3 µM, first compound 0.0316 µM
[12] = second compound 3 µM, first compound 0.1 µM
[13] = second compound 9.49 µM, first compound 0.00316 µM
[14] = second compound 9.49 µM, first compound 0.01 µM
[15] = second compound 9.49 µM, first compound 0.0316 µM
[16] = second compound 9.49 µM, first compound 0.1 µM
[17] = second compound 30 µM, first compound 0.00316 µM
[18] = second compound 30 µM, first compound 0.01 µM
[19] = second compound 30 µM, first compound 0.0316 µM
[20] = second compound 30 µM, first compound 0.1 µM

Structure (SMILES)	IC50 (second compound 0.3 µM)	IC50 (second compound 0.949 µM)	IC50 (second compound 3 µM)	IC50 (second compound 9.49 µM)	IC50 (second compound 30 µM)	viability, T/C [1]	viability, T/C [2]	viability, T/C [3]	viability, T/C [4]	viability, T/C [5]	viability, T/C [6]	viability, T/C [7]	viability, T/C [8]	viability, T/C [9]	viability, T/C [10]	viability, T/C [11]	viability, T/C [12]	viability, T/C [13]	viability, T/C [14]	viability, T/C [15]	also measured
CC(C)CC(NC(=O)CNC(=O)c1cc(Cl)ccc1Cl)B1OC(=O)CC(CC(=O)O)(C(=O)O)O1 (stereo not given) + CC(C)NCC(C(=O)N1CCN(c2ncnc3c2C(C)CC3O)CC1)c1ccc(Cl)cc1	16.8 nM	17.5 nM	9.34 nM	11.8 nM	< 0.316 nM	90.6%	82.6%	10.4%	0.25%	95.4%	87.2%	10.7%	0.17%	77.5%	49.1%	6.98%	0.17%	64.8%	57.6%	5.18%	viability, T/C (second compound 0.3 µM, first compound 0.000316 µM): 109%; viability, T/C (second compound 0.3 µM, first compound 0.001 µM): 97.2%; viability, T/C (second compound 0.949 µM, first compound 0.000316 µM): 92.4%; viability, T/C (second compound 0.949 µM, first compound 0.001 µM): 89%; viability, T/C (second compound 3 µM, first compound 0.000316 µM): 90.5%; viability, T/C (second compound 3 µM, first compound 0.001 µM): 77%; viability, T/C (second compound 9.49 µM, first compound 0.000316 µM): 70.9%; viability, T/C (second compound 9.49 µM, first compound 0.001 µM): 68%; viability, T/C [16]: 0.17%; viability, T/C (second compound 30 µM, first compound 0.000316 µM): 48.2%; viability, T/C (second compound 30 µM, first compound 0.001 µM): 49.8%; viability, T/C [17]: 45.2%; viability, T/C [18]: 30.9%; viability, T/C [19]: 4.73%; viability, T/C [20]: 0.24%
COc1c(OCCCN2CCOCC2)ccc2c3n(c(=NC(=O)c4cnc(N)nc4)nc12)CCN3 + CC(C)NCC(C(=O)N1CCN(c2ncnc3c2C(C)CC3O)CC1)c1ccc(Cl)cc1	125 nM	109 nM	66.2 nM	41.4 nM	5.9 nM	109%	96.3%	76.3%	62.2%	98.4%	95%	76.2%	55.3%	82.3%	81.8%	63.1%	43.6%	69.8%	72.8%	54.2%	viability, T/C (second compound 0.3 µM, first compound 0.316 µM): 23.1%; viability, T/C (second compound 0.3 µM, first compound 1 µM): 12.3%; viability, T/C (second compound 0.949 µM, first compound 0.316 µM): 22.3%; viability, T/C (second compound 0.949 µM, first compound 1 µM): 11.7%; viability, T/C (second compound 3 µM, first compound 0.316 µM): 16.7%; viability, T/C (second compound 3 µM, first compound 1 µM): 10.6%; viability, T/C [16]: 31.3%; viability, T/C (second compound 9.49 µM, first compound 0.316 µM): 15.3%; viability, T/C (second compound 9.49 µM, first compound 1 µM): 11.8%; viability, T/C [17]: 45.8%; viability, T/C [18]: 56.7%; viability, T/C [19]: 39.3%; viability, T/C [20]: 26.5%; viability, T/C (second compound 30 µM, first compound 0.316 µM): 10.6%; viability, T/C (second compound 30 µM, first compound 1 µM): 6.33%

Source: PubChem BioAssay AID2060345 (Molecular Pharmacology Branch, DTP, NCI, 2025)
